What was measured:
[1] = test system: corneodesmosin; test: Degradation of corneodesmosin in a controlled environment chamber (varnished strippings, immunoblot); type: biochemical; conditions: for percentages of residual corneodesmosin relative to the control: 5% active agent in base Arlacel/Myrj, 37° C., 70% relative humidity, 5 days, mean of 2 experiments, the lower the percentage, the higher the degradation
Text: (§1) Three properties were therefore studied: • The prodesquamating power, by the test of degradation of corneodesmosin in a controlled environment chamber with formulated products containing 5% active agent. […] P According to one of the aspects of the invention, the said compound of formula (I) has a corneodesmosin degrading effect which it stimulates.
The molecules are formulated in a neutral base Arlacel/Myrj. The products are in contact with varnished strippings under defined temperature, humidity and incubation time conditions. The corneodesmosin is assayed by immunodetection after incubation. It is studied on an immunoblot after electrophoretic separation and transfer onto a membrane. After specific labelling with the antibody G3619, it is visualized by chemiluminescence.
The Hydrovance® product, which is a mixture comprising N-(2-hydroxyethyl)urea marketed by the company National Starch, is compared with urea and with a control.
Rectangles of 3×3.5 cm^2 are cut out in varnished strippings made on the bottom of dry skin legs. They are treated with 42 mg of product (4 mg/cm^2) each. Controls and assays are carried out in parallel. The assays are incubated at 37° C. and 70% relative humidity for 5 days. The controls are kept for 5 days at −20° C. For each of the samples, acetone powders are made and weighed. The proteins are extracted with 100 μl of complete Laemmli buffer. They are assayed according to the Bradford method. The protein level of each sample is adjusted and will allow direct comparison of the various samples.
The proteins are separated by SDS-Page electrophoresis on 12% acrylamide gel. After transferring the proteins onto a PVDF membrane, the immunodetection is carried out with the anti-corneodesmosin antibody G3619 (Guy Serre) at 1/12 500 according to a conventional Western-blot technique. The visualization is performed by chemiluminescence. The bands detected by fluorSmax (Biorad) are quantified with the software quantity-one. […]
The results are expressed as percentages of residual corneodesmosin relative to the control −80° C. […]

[2] = test system: acid proteases of the SC (stratum corneum); test: Activating potential on acid proteases of the stratum corneum (Enzchek Bodipyfl-casein fluorimetric assay); type: biochemical; conditions: for acid protease activity compared with the control / duration of the activating effect on acid proteases: 1 and 2 M; for acid protease activity compared with the control: 0.1M acetic buffer pH 5.0, SC enzymatic extract; for duration of the activating effect on acid proteases: readings up to 24 h
Experimental: as §1
The property of activating certain acid proteases of the SC (stratum corneum) is evaluated. The measurement of this activity is carried out by fluorimetric assay with the aid of the Enzchek kit (Molecular Probes). This protocol uses a Bodipyfl-casein substrate which, when hydrolysed, releases fluorescence. The fluorescence released is directly proportional to the protease activity. It is read directly on a 96-well plate in a spectrofluorimeter at 750V at an excitation of 485 nm and an emission of 535 nm.
The results obtained with N-(2-hydroxyethyl)urea (compound according to the invention) are compared with those for urea.
The molecules are prepared at 0, 1, 2 and 4 M in 0.1M acetic buffer; pH 5.0. An enzymatic extract is prepared from acetone powders. 2 ml of PBS buffer +0.1% Triton X100 are brought into contact for 1 h in crushed ice with 200 mg of stratum corneum acetone powders. The mixture is then ground in a potter device and then centrifuged for 10 min at 15 000 g at 4° C. The supernatant is collected. The Enzchek substrate diluted 1/200 is incorporated into each solution containing the molecules. The assays are repeated three times.
The reaction mixture is prepared directly in a white plate. 10 μl of enzymatic extract are added to 200 μl of solution containing the substrate at 0, 1, 2 or 4M. The readings are carried out at t0, 1 2 h, t 16 h and t 24 h.

[3] = test system: keratins and proteins of the SC; test: "Keratolytic" potential: solubilization of keratins and proteins of the stratum corneum (electrophoresis gel); conditions: 2M in water +2% CHAPS; room temperature; 12.5% acrylamide gel, silver nitrate staining
Experimental: as §1
Urea is known for its denaturing activity on keratolytic proteins.
30 mg of acetone powders of stratum corneum of the bottom of the legs of volunteers are prepared and brought into contact with 3 ml of water +2% CHAPS (zwitterionic detergent) for 10 min at room temperature. The mixture is then ground in a potter device and centrifuged for 10 min at 15 000 g. The supernatant is removed. This method makes it possible to remove the very soluble keratins and proteins which would interfere with the interpretation of the results. The pellet is taken up in 300 μl of water+CHAPS and 20 μl are distributed into 10 Eppendorf tubes.
Each molecule to be studied is prepared at 2M in water +2% CHAPS.
200 μl of solution are mixed with 20 μl of extract of acetone powders. The assays are carried out in duplicate. A control with no reagent is performed in parallel. The reaction mixtures are incubated for 10 min at room temperature, they are ground in a potter device and then incubated for 50 min at room temperature. They are centrifuged for 10 min at 15 000 g. […]

SMILES | percentages of residual corneodesmosin relative to the control [1] [%] | prodesquamating effect (corneodesmosin degradation) compared with urea ([1]; 5% in base Arlacel/Myrj) | acid protease activity compared with the control [2] | duration of the activating effect on acid proteases [2] | acid protease activity ([2]; 4M, regardless of the time studied) | degradation of a protein substrate by the acid proteases of the SC ([2]; concentration of 0.5 to 2M, in particular 1M) | solubilization of SC proteins, gel band pattern compared with urea [3]
NC(=O)NCCO [Hydrovance, N-(2-hydroxyethyl)urea] | 23 | slightly higher effect than urea | large increase in activity | long-lasting | marked decrease in activity | durably stimulates | distinguishable from urea by the appearance of low MW bands
NC(N)=O [urea] | 30 | – | slightly activating effect | up to two hours after the start of incubation | – | – | –

From US20070014748A1, “Urea compounds that promote desquamation” (L'OREAL, priority 2005, published 2007)
